The results in this text go back to patent US10018911B2, “Chemically amplified resist material and resist pattern-forming method” (JSR CORPORATION, priority 2015, dated 2018).

This data set is described as follows: Absorbance measurement of component (b) and derived sensitizing agent, 0.0001% by mass cyclohexane solution. Format: physicochemical. The procedure:
The component (b) and the sensitizing agent derived from the component (b) are shown together in Table 2. With respect to each of the components (b) and the sensitizing agents derived from the components (b), a 0.0001% by mass cyclohexane solution thereof was prepared. The absorbance of the solution prepared thus was measured using cyclohexane as a reference solvent and a spectrophotometer (“V-670” available from JASCO Corporation).
The absorbance was evaluated to be: “transparent” in a case where the measurement value of the absorbance was less than 0.01 over the entire wavelength range of no less than 300 nm and no greater than 450 nm; and “absorbing” in a case where the measurement value of the absorbance was no less than 0.01 at at least one wavelength within the entire wavelength range of no less than 300 nm and no greater than 450 nm.

Regarding `COc1ccc(C(OC)(OC)c2ccc(OC)cc2)cc1` [Example B-2], the “Absorbance (300-450 nm) of (b) component” value is “transparent (the measurement value of the absorbance was less than 0.01 over the entire wavelength range of no less than 300 nm and no greater than 450 nm)”. As to `COc1ccc(C(O)c2ccc(OC)cc2)cc1` [Example B-1, bis(4-methoxyphenyl)methanol], the “Absorbance (300-450 nm) of (b) component” value is “transparent (the measurement value of the absorbance was less than 0.01 over the entire wavelength range of no less than 300 nm and no greater than 450 nm)”.
